Test results reported in US9180134B2, “Mitochondrial ribosomal proteins as aging regulators” (ECOLE POLYTECHNIQUE FEDERALE DE LAUSANNE (EPEL), priority 2011, dated 2015).

What was measured:
[1] = tested on: Hepa1-6 mouse liver cells; test: Oxygen consumption in Hepa1-6 cells (Seahorse XF24); assay type: cell-based; conditions: 48 h incubation, normalized for protein content
Protocol: (§1) Hepa1-6 mouse liver cells were maintained in DMEM medium containing 4.5 g/l glucose and 10% fetal calf serum. Hepa1-6 cells were incubated for 48 h with doxycycline or chloramphenicol (both Sigma) in medium containing 1 g/l glucose, with 1% (v/v) oleate-BSA (Sigma) supplementation, and without any other antibiotics. Oxygen consumption in Hepa1-6 cells was measured using the Seahorse XF24 equipment (Watanabe et al., 2006, Nature 439, 484), and normalized for protein content. ATP content was measured using CellTiter-Glo (Promega), according to the manufacturer's protocol.

[2] = tested on: mitochondrial unfolded protein response (UPR^mt); test: UPR^mt GFP reporter worms (hsp-6::GFP); assay type: in vivo, C. elegans; conditions: Day 1 adults
Protocol: Treatments with antibiotics (carbenicillin, doxycycline, and chloramphenicol (all Sigma)) were performed with heat-killed bacteria (Wood et al., 2004, Nature 430, 686). Carbenicillin, doxycycline, and chloramphenicol were added at the indicated concentrations. Animals were exposed to antibiotics from eggs to L4 larval stage and then shifted on plates seeded with live OP50 bacteria. GFP expression and quantification were carried out according to the protocol previously described (Durieux et al, 2011, Cell 144, 79). Briefly, GFP was monitored in Day 1 adults. Fluorimetric assays were performed using a Victor X4 multilabel plate reader (Perkin-Elmer Life Science). Eighty roller worms were picked at random (20 worms per well of a black-walled 96-well plate) and each well was read four times and averaged. Each experiment was repeated at least twice. For picture acquisition, animals were mounted on 2% agarose pads in a droplet of 10 mM tetramisole (Sigma) and examined using a Zeiss Axioplan-2 microscope (Carl Zeiss MicroImaging, Thornwood, N.Y., USA) equipped for both DIC and epifluorescence. Images were obtained using a Coolsnap ES^2 camera.

C. elegans [3] = test: Worm respiration assay (Seahorse XF24); assay type: in vivo; conditions: worms treated with antibiotic
Protocol: Treatments with antibiotics (carbenicillin, doxycycline, and chloramphenicol (all Sigma)) were performed with heat-killed bacteria (Wood et al., 2004, Nature 430, 686). Carbenicillin, doxycycline, and chloramphenicol were added at the indicated concentrations. Animals were exposed to antibiotics from eggs to L4 larval stage and then shifted on plates seeded with live OP50 bacteria. Oxygen consumption was measured using the Seahorse XF24 equipment (Seahorse Bioscience Inc., North Billerica, Mass.). Typically, 200 animals per conditions were recovered from NGM plates with M9 medium, washed three times in 2 mL M9 to eliminate residual bacteria, and resuspended in 500 μL M9 medium. Worms were transferred in 24-well standard Seahorse plates (#100777-004) (50 worms per well) and oxygen consumption was measured 6 times. Respiration rates were normalized to the number of worms in each individual well.

C. elegans [4] = test: Worm lifespan analysis; assay type: in vivo; conditions: antibiotic from eggs to L4 larval stage, heat-killed bacteria; 20° C
Protocol: Lifespan tests were performed as described (Mouchiroud et al., 2011, Aging Cell 10, 39). Briefly, 60-100 animals were used per conditions and scored every other day. All lifespan experiments were performed at 20° C. […] Treatments with antibiotics (carbenicillin, doxycycline, and chloramphenicol (all Sigma)) were performed with heat-killed bacteria (Wood et al., 2004, Nature 430, 686). Carbenicillin, doxycycline, and chloramphenicol were added at the indicated concentrations. Animals were exposed to antibiotics from eggs to L4 larval stage and then shifted on plates seeded with live OP50 bacteria.

C57BL/6N mice = test: Mouse indirect calorimetry (CLAMS); assay type: in vivo; conditions: C57BL/6 mice, chow containing doxycycline for 10 days, data not shown
Protocol: Wild type C57BL/6N mice were treated for 10 days with 50 mpkd doxycycline (Sigma) in food admix. Oxygen consumption (VO2), respiratory exchange ratios (RER), and activity were monitored by indirect calorimetry using the comprehensive laboratory animal monitoring system (CLAMS) (Columbus Instruments, Columbus, Ohio, USA).

[5] = tested on: Hepa1-6 mouse liver cells; test: ATP content (CellTiter-Glo) in Hepa1-6 cells; assay type: cell-based; conditions: data not shown
Protocol: as §1

Structure (SMILES)	respiration (oxygen consumption) in Hepa1-6 cells [1]	UPR^mt induction in C. elegans [2]	oxygen consumption (respiration) of C. elegans (C. elegans [3])	lifespan of C. elegans (C. elegans [4])	activity (C57BL/6N mice)	body weight (C57BL/6N mice)	food intake (C57BL/6N mice)	cell viability as measured by ATP levels [5]
O=C(N[C@H](CO)[C@H](O)c1ccc([N+](=O)[O-])cc1)C(Cl)Cl [chloramphenicol]	decreased respiration	induced UPR^mt	decreased respiration	extended lifespan				
C[C@H]1c2cccc(O)c2C(=O)C2=C(O)[C@]3(O)C(=O)C(C(N)=O)=C(O)[C@@H](N(C)C)[C@@H]3[C@@H](O)[C@@H]21 [doxycycline]					without changes	without changes	without changes	without affecting cell viability
